Test results reported in patent US6337394B2, “Compounds” (AstraZeneca AB, priority 1997, dated 2002).

Biological target: T1, Human thrombin (Homo sapiens, UniProt P00734)
T1 construct: purchased Sigma Chem. Co. T 6769
Experiment: Determination of Thrombin Clotting Time (TT), Test A
Format: biochemical
Conditions: concentration of inhibitor that doubles the thrombin clotting time for human plasma; pooled normal citrated human plasma, pH 7.4
Procedure: Determination of Thrombin Clotting Time (TT)
Human thrombin (T 6769, Sigma Chem. Co.) in buffer solution, pH 7.4, 100 μL, and inhibitor solution, 100 μL, were incubated for one min. Pooled normal citrated human plasma, 100 μL, was then added and the clotting time measured in an automatic device (KC 10, Amelumg).
The clotting time in seconds was plotted against the inhibitor concentration, and the IC50TT was determined by interpolation.
IC50TT is the concentration of inhibitor in the test that doubles the thrombin clotting time for human plasma.

`COc1ccc(OC)c(C(CO)C(=O)N2CCCC2C(=O)NCc2ccc(C(=N)N)cc2C)c1` (single isomer, unassigned) [Example 2, (2,5-diMeO)Ph—(R or S)CH(CH2OH)—CO-Pro-Pab(2-Me)×HOAc] gave an IC50 of less than 300 nM.
